Laboratory results from paper PMC12825302, “Structural plasticity enables broad cAn binding and dual activation of CRISPR-associated ribonuclease Cdn1” (Nucleic Acids Research, 2026).

Key:
Cdn1 [1] = molecular target: T1, Cdn1 (Psychrobacter lutiphocae, UniProt A0ACN4YG66); test: ITC; format: binding
T1 construct: codon-optimized gene in pET-28a(+), E. coli BL21(DE3), Ni-NTA and SEC; homodimer (SEC-MALS); N-terminal CARF and C-terminal PD-(D/E)xK nuclease domain
T1 sequence (A0ACN4YG66 1-399): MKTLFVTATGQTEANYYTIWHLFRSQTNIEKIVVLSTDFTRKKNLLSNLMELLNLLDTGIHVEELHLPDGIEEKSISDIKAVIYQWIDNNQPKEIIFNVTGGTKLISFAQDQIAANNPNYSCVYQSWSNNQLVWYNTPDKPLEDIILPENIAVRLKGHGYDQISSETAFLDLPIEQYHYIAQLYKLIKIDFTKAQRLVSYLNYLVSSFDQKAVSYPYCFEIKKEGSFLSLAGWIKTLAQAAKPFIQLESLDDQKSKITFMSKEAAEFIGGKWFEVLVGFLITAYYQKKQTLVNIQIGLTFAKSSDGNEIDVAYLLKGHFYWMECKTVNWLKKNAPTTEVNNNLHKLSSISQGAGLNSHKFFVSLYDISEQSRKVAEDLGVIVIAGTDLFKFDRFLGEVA

Cdn1 [2] = molecular target: T1, Cdn1; test: FAM-labeled ssRNA (RNA1) cleavage, urea-PAGE; format: biochemical
[3] = molecular target: Cdn1 (CRISPR-associated dual-cOAs-activated ribonuclease 1) (Psychrobacter lutiphocae); test: SEC; size-exclusion chromatography during purification (HiLoad 16/600 Superdex 200 prep grade); no cyclic oligoadenylate added
[4] = molecular target: Cdn1 (CRISPR-associated dual-cOAs-activated ribonuclease 1) (Psychrobacter lutiphocae); test: SEC-MALS; 10 mg/ml Cdn1 in 50 mM NaH2PO4/Na2HPO4, pH 7.4, 300 mM NaCl; TSKgel G3000SWXL, 0.5 ml/min, 8°C; no cyclic oligoadenylate added

| Kd (Cdn1 [1]) [nM] | EC50 (Cdn1 [2]) [nM] | stoichiometry N [3] | stoichiometry N [4] | Compound |
| --- | --- | --- | --- | --- |
| 23 ± 8.7 |  |  |  | Nc1ncnc2c1ncn2[C@@H]1O[C@@H]2COP(=O)(O)O[C@H]3[C@@H](O)[C@H](n4cnc5c(N)ncnc54)O[C@@H]3COP(=O)(O)O[C@H]3[C@@H](O)[C@H](n4cnc5c(N)ncnc54)O[C@@H]3COP(=O)(O)O[C@H]2[C@H]1O [cA3] |
| 740 ± 205 | 670 ± 98.8 |  |  | Nc1ncnc2c1ncn2[C@@H]1O[C@@H]2COP(=O)(O)O[C@H]3[C@@H](O)[C@H](n4cnc5c(N)ncnc54)O[C@@H]3COP(=O)(O)O[C@H]3[C@@H](O)[C@H](n4cnc5c(N)ncnc54)O[C@@H]3COP(=O)(O)O[C@H]3[C@@H](O)[C@H](n4cnc5c(N)ncnc54)O[C@@H]3COP(=O)(O)O[C@H]3[C@@H](O)[C@H](n4cnc5c(N)ncnc54)O[C@@H]3COP(=O)(O)O[C@H]3[C@@H](O)[C@H](n4cnc5c(N)ncnc54)O[C@@H]3COP(=O)(O)O[C@H]2[C@H]1O [cA6] |
| 54.6 ± 25.1 | 2.17 ± 0.68 |  |  | Nc1ncnc2c1ncn2[C@@H]1O[C@@H]2COP(=O)(O)O[C@H]3[C@@H](O)[C@H](n4cnc5c(N)ncnc54)O[C@@H]3COP(=O)(O)O[C@H]3[C@@H](O)[C@H](n4cnc5c(N)ncnc54)O[C@@H]3COP(=O)(O)O[C@H]3[C@@H](O)[C@H](n4cnc5c(N)ncnc54)O[C@@H]3COP(=O)(O)O[C@H]2[C@H]1O [cA4] |
|  |  | 2 | 2 | Cdn1 (CRISPR-associated dual-cOAs-activated ribonuclease 1) (enzyme) |
